Measurements taken from US10072023B2, “Diarylethene compounds and uses thereof” (SWITCH MATERIALS, INC., priority 2011, dated 2018).

Tests used:
[1] = Solubility in indicated solvent; type: physicochemical; settings: % wt soluble in triglyme
Text: A compound with greater solubility allows for a formulation or material with a greater concentration of coloured molecule to be incorporated into a composition. This may allow for increasing the contrast ratio for a compound with a lesser absorbance at PSS. Inclusion of a solubilizing group in a compound according to various embodiments of the invention may increase solubility. Examples of solubilizing groups may include alkoxy or siloxy groups.

[2] = Absorbance at photostationary state (PSS) under simulated sunlight or 365 nm light; type: physicochemical; set-up: λ max: unit not given here; settings: for Absorbance at PSS, 365 nm: 365 nm light source; for Absorbance at PSS, 365 nm / Absorbance at PSS, full / Absorbance at PSS, +UV / λ max: 2.0×10^−5 M in triglyme; for sensitivity index: ratio of PSS under 365 nm light to PSS under full spectrum light (without UV blocking film); for Absorbance at PSS, full: simulated sunlight (QSUN solar simulator), no UV blocking film; for Absorbance at PSS, +UV: simulated sunlight with UV blocking film (cutoff 370 nm); for λ max: wavelength of maximum absorbance in the visible range, ring-closed isoform
Summary of the method: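 Compounds at 2.0×10^−5 M in triglyme, photofaded with visible light, then irradiated with simulated sunlight (xenon arc) or 365 nm light until the UV/Vis spectrum stabilized. Also irradiated through a UV-blocking film (370 nm cutoff); sensitivity index is PSS under 365 nm divided by PSS under full spectrum.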

Structure (SMILES)	Solubility [1]	Absorbance at PSS, 365 nm [2]	sensitivity index [2]	Absorbance at PSS, full [2]	Absorbance at PSS, +UV [2]	λ max [2]
CC(C)(C)c1ccc(-c2sc(-c3ccc(C4(C)OCCO4)cc3)cc2C2=C(c3cc(-c4ccc(C5(C)OCCO5)cc4)sc3-c3ccc(C(C)(C)C)cc3)C(F)(F)C(F)(F)C2(F)F)cc1 [S066, 2,2′-((4,4′-(perfluorocyclopent-1-ene-1,2-diyl)bis(5-(4-(tert-butyl)phenyl)thiophene-4,2-diyl))bis(4,1-phenylene))bis(2-methyl-1,3-dioxolane)]	2.5 % wt	0.226	2.28	0.099	0.049	615
COc1ccc(-c2cc(C3=C(c4cc(-c5ccc(OC)s5)sc4-c4ccc(OC)s4)C(F)(F)C(F)(F)C3(F)F)c(-c3ccc(OC)s3)s2)s1 [S020, 3′,3″″-(perfluorocyclopent-1-ene-1,2-diyl)bis(5,5″-dimethoxy-2,2′:5′,2″-terthiophene)]	3 % wt	0.244	2.12	0.115	0.085	665
CC(C)(C)c1ccc(-c2sc(-c3cccs3)cc2C2=C(c3cc(-c4cccs4)sc3-c3ccc(C(C)(C)C)cc3)C(F)(F)C(F)(F)C2(F)F)cc1 [S052, 4,4″-(perfluorocyclopent-1-ene-1,2-diyl)bis(5-(4-(tert-butyl)phenyl)-2,2′-bithiophene)]	1 % wt	0.318	1.54	0.206	0.116	630
Cc1cc(-c2sc(C)c(C)c2C2=C(c3c(-c4cc(C)c(C)s4)sc(C)c3C)C(F)(F)C(F)(F)C2(F)F)sc1C [S039, 3,3′-(perfluorocyclopent-1-ene-1,2-diyl)bis(4,4′,5,5′-tetramethyl-2,2′-bithiophene)]	2 % wt	0.372	7.75	0.048	0.028	570
CCOCCOCCOCCOc1ccc(-c2sc(-c3ccc(C(C)(C)C)s3)cc2C2=C(c3cc(-c4ccc(C(C)(C)C)s4)sc3-c3ccc(OCCOCCOCCOCC)cc3)C(F)(F)C(F)(F)C2(F)F)cc1 [S109, 4,4″-(perfluorocyclopent-1-ene-1,2-diyl)bis(5′-(tert-butyl)-5-(4-(2-(2-(2-ethoxyethoxy)ethoxy)ethoxy)phenyl)-2,2′-bithiophene)]	>25 % wt	0.367	1.24	0.296	0.217	645
FC(F)(F)c1ccc(-c2cc(C3=C(c4cc(-c5ccc(C(F)(F)F)cc5)sc4-c4ccc(C(F)(F)F)cc4)C(F)(F)C(F)(F)C3(F)F)c(-c3ccc(C(F)(F)F)cc3)s2)cc1 [S044, 3,3′-(perfluorocyclopent-1-ene-1,2-diyl)bis(2,5-bis(4-(trifluoromethyl)phenyl)thiophene)]	1 % wt	0.222	3.58	0.062	0.027	605
COCCOCCOCCOC(C)(C)c1ccc(-c2cc(C3=C(c4cc(-c5ccc(C(C)(C)OCCOCCOCCOC)cc5)sc4-c4ccc(C(C)(C)C)cc4)C(F)(F)C(F)(F)C3(F)F)c(-c3ccc(C(C)(C)C)cc3)s2)cc1 [S068, 12,12′-((4,4′-(perfluorocyclopent-1-ene-1,2-diyl)bis(5-(4-(tert-butyl)phenyl)thiophene-4,2-diyl))bis(4,1-phenylene))bis(12-methyl-2,5,8,11-tetraoxatridecane)]	>20 % wt	0.239	2.15	0.111	0.051	615
FC1(F)C(c2cc(-c3ccccc3)sc2-c2ccccc2)=C(c2cc(-c3ccc(Cl)cc3)sc2-c2ccccc2)C(F)(F)C1(F)F [S006, 5-(4-chlorophenyl)-3-(2-(2,5-diphenylthiophen-3-yl)-3,3,4,4,5,5-hexafluorocyclopent-1-en-1-yl)-2-phenylthiophene]	3 % wt	0.141	3.71	0.038	0.013	610
CCCCCCCCc1ccc(-c2oc3ccccc3c2C2=C(c3c(-c4ccc(CCCCCCCC)cc4)oc4ccccc34)C(F)(F)C(F)(F)C2(F)F)cc1 [S079, 1,2-bis(2-(4-n-octylphenyl)-1-benzofuran-3-yl)perfluorocyclopentene]	8-11 % wt	0.17	7.39	0.023	0.008	490
COc1cccc(-c2cc(C3=C(c4cc(-c5cccc(OC)c5)sc4-c4cccc(OC)c4)C(F)(F)C(F)(F)C3(F)F)c(-c3cccc(OC)c3)s2)c1 [S096, 3,3′-(perfluorocyclopent-1-ene-1,2-diyl)bis(2,5-bis(3-methoxyphenyl)thiophene)]	15 % wt	0.183	4.07	0.045	0.014	609
CCOCCOCCOCCOC(CC)(CC)c1ccc(-c2sc(-c3ccc(C(C)(C)C)s3)cc2C2=C(c3cc(-c4ccc(C(C)(C)C)s4)sc3-c3ccc(C(CC)(CC)OCCOCCOCCOCC)s3)C(F)(F)C(F)(F)C2(F)F)s1 [S128, 13,13′-(3′,3″″-(perfluorocyclopent-1-ene-1,2-diyl)bis(5″-(tert-butyl)-[2,2′: 5′,2″-terthiophene]-5,3′-diyl))bis(13-ethyl-3,6,9,12-tetraoxapentadecane)]	>25 % wt	0.403	1.53	0.264	0.224	648
COCCOCCOCCOc1ccc(-c2sc(-c3ccc(C(C)(C)C)s3)cc2C2=C(c3cc(-c4ccc(C(C)(C)C)s4)sc3-c3ccc(OCCOCCOCCOC)cc3)C(F)(F)C(F)(F)C2(F)F)cc1 [S108]	>25 % wt	0.374	1.28	0.292	0.215	645
c1ccc(-c2nc(-c3cc(-c4cccs4)sc3-c3cccs3)c(-c3cc(-c4cccs4)sc3-c3cccs3)s2)cc1 [S075]	1 % wt	0.302	3.82	0.079	0.031	670
COCCC[Si](CCCOC)(CCCOC)c1ccc(-c2sc(-c3ccc(C(C)(C)C)s3)cc2C2=C(c3cc(-c4ccc(C(C)(C)C)s4)sc3-c3ccc([Si](CCCOC)(CCCOC)CCCOC)s3)C(F)(F)C(F)(F)C2(F)F)s1 [S158]	>20 % wt	0.394	1.15	0.342	0.291	650
CC(C)(C)c1ccc(-c2sc(-c3ccc(Cl)cc3)cc2C2=C(c3cc(-c4ccc(Cl)cc4)sc3-c3ccc(C(C)(C)C)cc3)C(F)(F)C(F)(F)C2(F)F)cc1 [S060]	1 % wt	0.22	2.06	0.107	0.038	615
COCCC[Si](CCCOC)(CCCOC)c1ccc(-c2cc(C3=C(c4cc(-c5ccc([Si](CCCOC)(CCCOC)CCCOC)s5)sc4-c4ccc([Si](CCCOC)(CCCOC)CCCOC)s4)C(F)(F)C(F)(F)C3(F)F)c(-c3ccc([Si](CCCOC)(CCCOC)CCCOC)s3)s2)s1 [S138]	>20 % wt	0.337	1.10	0.306	0.262	650
Cc1cc(-c2cc(C3=C(c4cc(-c5cc(C)c(C)s5)sc4-c4cc(C)c(C)s4)C(F)(F)C(F)(F)C3(F)F)c(-c3cc(C)c(C)s3)s2)sc1C [S011]	3 % wt	0.363	1.81	0.201	0.142	655
CC(C)(C)c1ccc(-c2cc(C3=C(c4cc(-c5ccc(C(C)(C)C)s5)sc4-c4ccc(C(C)(C)C)s4)C(F)(F)C(F)(F)C3(F)F)c(-c3ccc(C(C)(C)C)s3)s2)s1 [S003, 3′,3″″-(perfluorocyclopent-1-ene-1,2-diyl)bis(5,5″-di-tert-butyl-2,2′:5′,2″-terthiophene)]	<3 % wt	0.372	1.40	0.2655	0.2055	650
c1ccc(-c2nc(-c3nc(-c4ccccc4)sc3-c3nc(-c4ccccc4)sc3-c3ccccc3)c(-c3ccccc3)s2)cc1 [S032, 2,2′,2″,5,5″-pentaphenyl-4,4′:5′,4″-terthiazole]	1 % wt	0.594	18.56	0.032	0.008	600
